Assay results published in ChEMBL document CHEMBL3046148, “Synthesis and biological evaluation of resveratrolcoumarin hybrid compounds as potential antitumor agents” (Med Chem Res, 2013).

Key:
Assay type in all cases: functional, cell-based; call rule not given here
MCF7 = assay: Cytotoxicity against Homo sapiens (human) MCF7 cells assessed as growth inhibition after 48 hr by MTT assay
[1] = Cytotoxicity against Homo sapiens (human) HCT28 cells assessed as growth inhibition after 48 hr by MTT assay
K562 = assay: Cytotoxicity against Homo sapiens (human) K562 cells assessed as growth inhibition after 48 hr by MTT assay
[2] = Homo sapiens, MCF7, 48 h, read-out: IC50
[3] = Homo sapiens, 48 h, read-out: IC50
[4] = Homo sapiens, K562, 48 h, read-out: IC50

Work on COc1ccc(/C=C/c2ccc3oc(=O)c(-c4ccccc4)cc3c2)cc1 [TRANS-6-(4-METHOXYSTYRYL)-3-PHENYLCOUMARIN] yielded an IC50 (MCF7; [2]) of 7.32 µM, an IC50 [1, 3] of 3.78 µM and an IC50 (K562; [4]) of 13 µM.
For COc1cc(/C=C/c2ccc3oc(=O)c(-c4ccccc4)cc3c2)cc(OC)c1 [TRANS-6-(3,5-DIMETHOXYSTYRYL)-3-PHENYLCOUMARIN], the IC50 (MCF7; [2]) was 13.5 µM, the IC50 [1] was “Not Active” and the IC50 (K562; k562) was “Not Active”.
In the case of COc1ccc(-c2cc3cc(/C=C\c4cc(OC)cc(OC)c4)ccc3oc2=O)cc1 [CIS-6-(3,5-DIMETHOXYSTYRYL)-3-(4-METHOXYPHENYL)COUMARIN], the IC50 (MCF7; mcf7) is reported as “Not Active”, the IC50 [1] is reported as “Not Active” and the IC50 (K562; k562) is reported as “Not Active”.
COc1ccc(/C=C/c2cc(OC)cc(OC)c2)cc1 [TRISMETHOXYRESVERATROL] gave an IC50 (MCF7; [2]) of 8.41 µM, an IC50 [1, 3] of 4.83 µM and an IC50 (K562; [4]) of 6.39 µM.
For COc1cc(/C=C\c2ccc3oc(=O)c(-c4ccccc4)cc3c2)cc(OC)c1 [CIS-6-(3,5-DIMETHOXYSTYRYL)-3-PHENYLCOUMARIN], the IC50 (MCF7; mcf7) was “Not Active”, the IC50 [1] was “Not Active” and the IC50 (K562; k562) was “Not Active”.
In the case of COc1ccc(-c2cc3cc(/C=C\c4ccccc4)ccc3oc2=O)cc1 [CIS-3-(4-METHOXYPHENYL)-6-STYRYLCOUMARIN], the IC50 (MCF7; mcf7) is reported as “Not Active”, the IC50 [1] is reported as “Not Active” and the IC50 (K562; k562) is reported as “Not Active”.
Molecule COc1ccc(-c2cc3cc(/C=C/c4cc(OC)cc(OC)c4)ccc3oc2=O)cc1 [TRANS-6-(3,5-DIMETHOXYSTYRYL)-3-(4-METHOXYPHENYL)COUMARIN] has an IC50 (MCF7; [2]) of 11.2 µM, an IC50 [1, 3] of 19.2 µM and an IC50 (K562; [4]) of 11.5 µM.
For COc1ccc(/C=C/c2ccc3oc(=O)c(-c4ccc(OC)c(OC)c4)cc3c2)cc1 [TRANS-3-(3,4-DIMETHOXYPHENYL)-6-(4-METHOXYSTYRYL)COUMARIN], the IC50 (MCF7; [2]) was 4.23 µM, the IC50 [1, 3] was 7.14 µM and the IC50 (K562; [4]) was 8.76 µM.
In the case of COc1cc(/C=C/c2ccc3oc(=O)c(-c4ccc(OC)c(OC)c4)cc3c2)cc(OC)c1 [TRANS-3-(3,4-DIMETHOXYPHENYL)-6-(3,5-DIMETHOXYSTYRYL)COUMARIN], the IC50 (MCF7; [2]) is reported as 7.41 µM, the IC50 [1, 3] is reported as 10.1 µM and the IC50 (K562; k562) is reported as “Not Active”.
Work on COc1ccc(/C=C\c2ccc3oc(=O)c(-c4ccccc4)cc3c2)cc1 [CIS-6-(4-METHOXYSTYRYL)-3-PHENYLCOUMARIN] yielded an IC50 (MCF7; [2]) of 10.9 µM, an IC50 [1, 3] of 10.7 µM and an IC50 (K562; [4]) of 3.79 µM.
With COc1ccc(/C=C\c2ccc3oc(=O)c(-c4ccc(OC)c(OC)c4)cc3c2)cc1 [CIS-3-(3,4-DIMETHOXYPHENYL)-6-(4-METHOXYSTYRYL)COUMARIN] the IC50 (MCF7; mcf7) was “Not Active”, the IC50 [1] was “Not Active” and the IC50 (K562; k562) was “Not Active”.
In the case of COc1ccc(-c2cc3cc(/C=C\c4ccccc4)ccc3oc2=O)cc1OC [CIS-3-(3,4-DIMETHOXYPHENYL)-6-STYRYLCOUMARIN], the IC50 (MCF7; mcf7) is reported as “Not Active”, the IC50 [1] is reported as “Not Active” and the IC50 (K562; k562) is reported as “Not Active”.
For COc1cc(/C=C\c2ccc3oc(=O)c(-c4ccc(OC)c(OC)c4)cc3c2)cc(OC)c1 [CIS-3-(3,4-DIMETHOXYPHENYL)-6-(3,5-DIMETHOXYSTYRYL)COUMARIN], the IC50 (MCF7; [2]) was 9 µM, the IC50 [1, 3] was 13.5 µM and the IC50 (K562; k562) was “Not Active”.
For COc1ccc(-c2cc3cc(/C=C/c4ccccc4)ccc3oc2=O)cc1OC [TRANS-3-(3,4-DIMETHOXYPHENYL)-6-STYRYLCOUMARIN], the IC50 (MCF7; [2]) was 14.5 µM, the IC50 [1, 3] was 10.8 µM and the IC50 (K562; k562) was “Not Active”.
